# Structures can show the parent of a compound that is named as a salt.
# Assays:
# [1] = tested on: vascular endothelial cells; details: cited from earlier work
# [2] = tested on: normal human umbilical cord vein vascular endothelial cells and normal human skin fibroblasts; test: Measurement of angiogenesis acceleration action (in vitro), hollow organ formation, Example 1; format: cell-based; details: 10 ng/ml; 10 days of culturing; FIG. 1
# Protocol: An angiogenesis kit (manufactured by Kurabo; constituted from normal human umbilical cord vein vascular endothelial cells and normal human skin fibroblasts) was cultured for 3 hours, and then the culture medium (the medium for angiogenesis use attached to the angiogenesis kit was used as the culture medium and cultured at 37° C. under a moist environment of 5% carbon dioxide-95% air, and a carbon dioxide incubator BNA-121D was used as the incubator) was changed and an agent to be tested was added to each well (0.5 ml/well). The medium exchange was carried out also on the 3rd, 6th and 8th days after commencement of the culturing and the fresh agent to be tested was added. The kind and concentration of the agent to be tested were untreated, solvent (DMSO) 0.1%, Compound 1 10^−9, 10^−8 and 10^−7 mol/l, VEGF-A 0.1, 1 and 10 ng/ml and HGF 0.1, 1 and 10 ng/ml, and the culturing was carried out by using 3 wells for each concentration. Fixation was carried out 10 days after the commencement of culturing, and staining of hollow organ with anti-CD31 antibody was carried out by using a hollow organ staining kit (manufactured by Kurabo). As the evaluation, Chalkley Grid (a grid lens, manufactured by Kurabo) was mounted on the eyepiece of a microscope, and the hollow organ formation was evaluated by counting intersections of the randomly arrange points of Chalkley Grid with the formed hollow organ (by referring to the evaluation method of J. Pathol., 177, 275-283 (1995)). The counting was carried out at 12 positions per well, and the total was calculated.
# As the agent to be tested, Compound 1 ((E)-[5-[2-[1-phenyl-1-(3-pyridyl)methylideneaminoxy]ethyl]-7,8-dihydronaphthalen-1-yloxy]acetic acid) was dissolved in dimethyl sulfoxide (DMSO) to prepare 10^−4, 10^−5 and 10^−6 mol/l solutions which were then used by diluting 1/1000 time with the culture medium.
# As the VEGF-A (vascular endothelial growth factor-A), the 2 μg/ml solution of VEGF contained in the angiogenesis control reagent kit of Kurabo was diluted with the culture medium and used. […]
# [3] = tested on: normal human umbilical cord vein vascular endothelial cells and normal human skin fibroblasts; test: Measurement of angiogenesis acceleration action (in vitro), hollow organ formation, Example 9; format: cell-based; details: 10 ng/ml; 10 days of culturing; FIG. 5
# Protocol: An angiogenesis kit (manufactured by Kurabo; constituted from normal human umbilical cord vein vascular endothelial cells and normal human skin fibroblasts) was cultured for 3 hours, and then the culture medium (the medium for angiogenesis use attached to the angiogenesis kit was used as the culture medium and cultured at 37° C. under a moist environment of 5% carbon dioxide-95% air, and a carbon dioxide incubator BNA-121D was used as the incubator) was changed and an agent to be tested was added to each well (0.5 ml/well). The medium exchange was carried out also on the 3rd, 6th and 8th days after commencement of the culturing and the fresh agent to be tested was added. The kind and concentration of the agent to be tested were untreated; DMSO: 0.1%; α-CD: 0.0118, 0.118 and 1.18 mg/ml; PGE2-αCD: 1, 10 and 100 nmol/l; Compound 3 (EP2 agonist), Compound 4 (EP4 agonist), EP1 agonist and EP3 agonist: 1, 10 and 100 nmol/l, VEGF: 0.1, 1 and 10 ng/ml; and HGF: 0.1, 1 and 10 ng/ml, and culturing was carried out by using 3 wells for each concentration. Fixation was carried out 10 days after the commencement of culturing, and staining of hollow organ with anti-CD31 antibody was carried out by using a hollow organ staining kit (manufactured by Kurabo). As the evaluation, Chalkley Grid (a grid lens, Kurabo) was mounted on the eyepiece of a microscope, and the hollow organ formation was evaluated by counting intersections of the randomly arrange points of Chalkley Grid with the formed hollow organ (by referring to the evaluation method of J. Pathol., 177, 275-283 (1995)). The counting was carried out at 12 positions per well, and the total was calculated.
# In this connection, Compound 3 as an EP2 agonist ((5Z,9β,11α,13E)-17,17-propano-11,16-dihydroxy-9-chloro-20-norprost-5,13-dienoic acid) was dissolved in dimethyl sulfoxide (DMSO) to prepare 10^−4, 10^−5 and 10^−6 mol/l solutions which were then used by diluting 1/1000 time with the culture medium.
# Compound 4 as an EP4 agonist ((11α,13E,15α)-9-oxo-11,15-dihydroxy-16-(3-methoxymethylphenyl)-17,18,19,20-tetranor-5-thiaprost-13-enoic acid) was dissolved in dimethyl sulfoxide (DMSO) to prepare 10^−4, 10^−5 and 10^−6 mol/l solutions which were then used by diluting 1/1000 time with the culture medium.
# The EP1 agonist ((13E)-(11α,15S,17S)-2,5-ethano-6,9-dioxo-11,15-dihydroxy-17,20-dimethylprost-13-enoic acid; the compound described in Example 1 in the specification of JP-A-11-322709) was dissolved in dimethyl sulfoxide (DMSO) to prepare 10^−4, 10^−5 and 10^−6 mol/l solutions which were then used by diluting 1/1000 time with the culture medium.
# The EP3 agonist (11α,15α-dimethoxy-9-oxoprost-5Z,13E-dienoic acid; the compound described in Example 1 in the specification of WO98/34916) was dissolved in dimethyl sulfoxide (DMSO) to prepare 10^−4, 10^−5 and 10^−6 mol/l solutions which were then used by diluting 1/1000 time with the culture medium.
# The PGE2-αCD was dissolved in distilled water for injection to prepare 10^−4, 10^−5 and 10^−6 mol/l solutions which were then used by diluting 1/1000 time with the culture medium.
# As the VEGF (vascular endothelial growth factor), the 2 μg/ml solution of VEGF contained in the angiogenesis control reagent kit of Kurabo was diluted with the culture medium and used.
# As the HGF (human hepatocyte growth factor), the 5 μg/ml solution of HGF purchased from R & D System-Funakoshi was diluted with the culture medium and used.
# The counts of hollow organ formation in the untreated wells were compared with those of the wells treated with respective concentrations of test samples by Dunnett's test (two-sided test). The significance level was set to 5%.
# In this connection, the data were shown by average value of 3 wells and standard deviation.
Molecule,"endothelial cell growth action, in words ([1]; in vitro)","HGF production, in words ([1]; vascular endothelial cells in vitro)","hollow organ formation (Chalkley Grid count), in words [2]","hollow organ formation (Chalkley Grid count), in words [3]"
"CC#CCC(C)[C@H](O)/C=C/[C@@H]1[C@H]2c3cccc(CCCC(=O)O)c3O[C@H]2C[C@H]1O (mixture of isomers) [Beraprost, (±)-(1R,2R,3aS,8bS)-2,3,3a,8b-terahydro-2-hydroxy-1-[(E)-(3S,4RS)-3-hydroxy-4-methyl-1-octen-6-ynyl]-1H-cyclopenta[b]benzofuran-5-butanoic acid sodium salt]",shows endothelial cell growth action,increases HGF production in vascular endothelial cells in vitro,,
HGF: human hepatocyte growth factor purchased from R & D System-Funakoshi; positive control agent,,,accelerated hollow organ formation,accelerated hollow organ formation

# From patent publication US8642630B2, “Endogeneous repair factor production accelerators” (Ono Pharmaceutical Co., Ltd., priority 2002, dated 2014)
